In one data set the target is hERG (Homo sapiens (Human), UniProt Q12809). Description: hERG inhibitory activity. The format is binding. Conditions: in words, as compared to compound 9 (1294). (Block of hERG is tested as a sign of cardiac risk.)
In another data set the target is Prkcn (Homo sapiens (Human), UniProt O94806). Description: Kinase panel selectivity: Prkcn. The format is biochemical.
Another data set relates to C. parvum Iowa strain. Briefly: C. parvum infection in mice (beige/SCID mouse model). The conditions noted are these: oral gavage 20 mg/kg 8 AM and 40 mg/kg 5 PM, days 5-14 after infection; each time point except Days 0 and 3; p ≤0.05.
The next data set addresses Kdr (Homo sapiens (Human), UniProt P35968). Briefly: Kinase panel selectivity: Kdr. The format is biochemical.
The next data set in a line: Stability. Conditions: in words.
The nature of the next data set: Solubility at pH 6.5. The format is physicochemical. The conditions noted are these: in words.
The subject of data set [1] is 24 off-target liabilities (e.g. ion channels, G-protein receptors). Briefly: 24 off-target liability screen.
A short description of the next data set: Oral availability. Conditions: compared with compound 9 (1294). The class given is in vivo.
The subject of data set [2] is 80 human protein kinases (hPKs). Briefly: AbbVie panel of 80 human protein kinases. The conditions noted are these: no hPKs inhibited. The format is biochemical.

Chain of Kdr (P35968 20-1356, species assumed): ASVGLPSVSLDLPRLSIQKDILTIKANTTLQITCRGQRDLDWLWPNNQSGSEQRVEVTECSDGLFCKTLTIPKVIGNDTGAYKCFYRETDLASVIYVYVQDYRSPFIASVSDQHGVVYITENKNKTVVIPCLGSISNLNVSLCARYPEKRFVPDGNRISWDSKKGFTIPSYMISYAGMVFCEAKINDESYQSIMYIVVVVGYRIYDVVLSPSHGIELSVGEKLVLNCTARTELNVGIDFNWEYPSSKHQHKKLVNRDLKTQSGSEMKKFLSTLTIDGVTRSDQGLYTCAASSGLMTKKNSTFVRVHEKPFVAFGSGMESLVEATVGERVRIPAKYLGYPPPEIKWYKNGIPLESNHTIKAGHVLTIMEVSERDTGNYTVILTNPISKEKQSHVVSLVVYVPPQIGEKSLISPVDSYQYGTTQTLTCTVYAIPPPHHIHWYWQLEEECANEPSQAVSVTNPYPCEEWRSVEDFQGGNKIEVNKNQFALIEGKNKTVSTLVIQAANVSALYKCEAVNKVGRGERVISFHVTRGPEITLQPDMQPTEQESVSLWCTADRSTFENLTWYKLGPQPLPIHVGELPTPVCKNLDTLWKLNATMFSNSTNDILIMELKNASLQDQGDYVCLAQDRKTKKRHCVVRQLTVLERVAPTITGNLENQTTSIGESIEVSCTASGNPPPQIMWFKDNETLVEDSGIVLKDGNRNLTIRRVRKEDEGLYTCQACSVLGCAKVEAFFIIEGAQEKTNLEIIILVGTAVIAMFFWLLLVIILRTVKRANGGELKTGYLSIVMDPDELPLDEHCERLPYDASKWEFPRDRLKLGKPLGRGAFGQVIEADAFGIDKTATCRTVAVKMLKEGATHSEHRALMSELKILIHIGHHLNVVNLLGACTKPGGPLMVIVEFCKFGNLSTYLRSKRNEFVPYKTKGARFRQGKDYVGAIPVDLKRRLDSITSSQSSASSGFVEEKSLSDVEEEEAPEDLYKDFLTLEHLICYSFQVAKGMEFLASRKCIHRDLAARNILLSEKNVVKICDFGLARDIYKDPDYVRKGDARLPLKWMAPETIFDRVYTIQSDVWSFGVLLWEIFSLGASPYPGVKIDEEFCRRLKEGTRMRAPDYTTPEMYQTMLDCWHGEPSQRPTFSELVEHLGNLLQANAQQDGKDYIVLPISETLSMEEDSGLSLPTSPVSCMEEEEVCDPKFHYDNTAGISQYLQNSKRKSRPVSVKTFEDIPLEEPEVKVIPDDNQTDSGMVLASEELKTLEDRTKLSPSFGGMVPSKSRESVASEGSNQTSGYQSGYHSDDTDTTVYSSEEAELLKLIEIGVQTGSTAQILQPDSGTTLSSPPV
Chain of hERG (Q12809 whole entry): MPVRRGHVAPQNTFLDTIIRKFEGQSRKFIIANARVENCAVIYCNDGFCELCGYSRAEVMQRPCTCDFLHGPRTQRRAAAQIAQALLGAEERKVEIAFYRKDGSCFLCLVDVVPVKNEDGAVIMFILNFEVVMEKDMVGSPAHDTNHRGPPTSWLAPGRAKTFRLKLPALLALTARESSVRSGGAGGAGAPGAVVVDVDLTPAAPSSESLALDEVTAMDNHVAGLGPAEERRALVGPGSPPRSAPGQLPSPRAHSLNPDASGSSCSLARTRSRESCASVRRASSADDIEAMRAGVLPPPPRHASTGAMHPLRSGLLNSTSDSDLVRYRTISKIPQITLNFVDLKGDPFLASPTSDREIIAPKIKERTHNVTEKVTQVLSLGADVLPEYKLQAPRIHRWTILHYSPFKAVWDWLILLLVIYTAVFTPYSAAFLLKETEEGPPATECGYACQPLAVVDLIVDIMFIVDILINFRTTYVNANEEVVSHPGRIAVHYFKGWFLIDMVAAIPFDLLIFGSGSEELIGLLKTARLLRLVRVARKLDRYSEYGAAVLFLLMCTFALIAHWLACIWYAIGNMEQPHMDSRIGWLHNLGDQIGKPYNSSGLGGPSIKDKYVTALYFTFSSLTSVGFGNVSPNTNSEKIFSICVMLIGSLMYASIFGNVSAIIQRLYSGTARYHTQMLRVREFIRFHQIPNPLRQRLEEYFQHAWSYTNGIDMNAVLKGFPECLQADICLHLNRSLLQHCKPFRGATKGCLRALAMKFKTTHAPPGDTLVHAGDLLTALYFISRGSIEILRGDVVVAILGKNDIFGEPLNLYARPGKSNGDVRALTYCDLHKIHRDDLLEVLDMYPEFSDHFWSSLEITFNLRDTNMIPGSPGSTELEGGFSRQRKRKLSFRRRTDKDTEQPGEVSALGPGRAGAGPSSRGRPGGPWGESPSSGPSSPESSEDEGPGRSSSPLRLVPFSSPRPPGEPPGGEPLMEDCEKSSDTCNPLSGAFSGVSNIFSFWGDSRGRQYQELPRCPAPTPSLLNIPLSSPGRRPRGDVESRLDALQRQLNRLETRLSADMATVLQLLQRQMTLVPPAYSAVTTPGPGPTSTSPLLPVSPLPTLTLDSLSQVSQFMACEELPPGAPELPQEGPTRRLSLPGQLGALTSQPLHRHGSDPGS
Chain of Prkcn (O94806 whole entry, looked up, species assumed): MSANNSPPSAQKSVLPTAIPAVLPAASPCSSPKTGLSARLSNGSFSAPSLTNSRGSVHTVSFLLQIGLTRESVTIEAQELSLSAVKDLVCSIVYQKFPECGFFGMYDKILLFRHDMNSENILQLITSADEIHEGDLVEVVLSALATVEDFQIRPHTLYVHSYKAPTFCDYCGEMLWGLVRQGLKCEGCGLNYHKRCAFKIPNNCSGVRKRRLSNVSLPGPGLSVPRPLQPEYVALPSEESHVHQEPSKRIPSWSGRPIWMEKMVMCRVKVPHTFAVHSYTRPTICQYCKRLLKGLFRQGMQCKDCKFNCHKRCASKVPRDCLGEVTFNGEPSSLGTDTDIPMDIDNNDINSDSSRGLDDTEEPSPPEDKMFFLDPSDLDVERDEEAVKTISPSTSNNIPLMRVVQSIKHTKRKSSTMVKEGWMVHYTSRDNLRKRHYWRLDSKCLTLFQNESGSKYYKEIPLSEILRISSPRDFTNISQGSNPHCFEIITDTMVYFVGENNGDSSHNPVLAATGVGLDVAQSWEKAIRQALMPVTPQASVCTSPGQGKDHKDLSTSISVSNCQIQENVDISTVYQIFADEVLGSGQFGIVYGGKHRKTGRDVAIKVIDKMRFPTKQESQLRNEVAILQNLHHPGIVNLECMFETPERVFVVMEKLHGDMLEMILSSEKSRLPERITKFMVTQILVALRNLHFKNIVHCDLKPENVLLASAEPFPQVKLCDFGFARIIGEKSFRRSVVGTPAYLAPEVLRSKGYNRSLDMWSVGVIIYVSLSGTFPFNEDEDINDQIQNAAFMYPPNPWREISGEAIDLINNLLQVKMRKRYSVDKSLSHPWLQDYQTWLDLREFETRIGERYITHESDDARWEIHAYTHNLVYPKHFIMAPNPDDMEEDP

Turning to `CCOc1ccc2cc(-c3nn(C(C)(C)C)c(N)c3C(N)=O)cnc2c1` [Compound 39, 5-amino-1-(tert-butyl)-3-(7-ethoxyquinolin-3-yl)-1H-pyrazole-4-carboxamide], at hERG, the hERG inhibitory activity result is reported as “no hERG inhibitory activity”. On Prkcn, the “Prkcn pKi” value turned out to be 6.37. Further, the “oocysts shed in stool, difference between treated and vehicle groups” value in the data set with C. parvum Iowa strain is listed as “the difference was significant”. Further, the “Kdr pKi” value on Kdr is reported as 6.24. The stability entry in the data set “Stability” was “good stability”. Further, in the data set “Solubility at pH 6.5”, the solubility entry is reported as “good solubility”. Moreover, the “signal in 24 off-target liability screen” value in data set [1] is “no signal was detected”. For the same compound, in “Oral availability”, the oral availability entry was “higher oral availability”. Further, the “inhibition of hPKs, level without inhibition” value in [2] is more than 3 µM.

The values above are taken from patent publication US9956214B2, “5-aminopyrazole-4-carboxamide inhibitors of CDPK1 from T. gondii and C. parvum” (UNIVERSITY OF WASHINGTON THROUGH ITS CENTER FOR …, priority 2013, dated 2018).
